Experimental data taken from patent publication US6849435B2, “Use of VLCFAE for identifying herbicidally active compounds” (Bayer Aktiengesellschaft, priority 2000, dated 2005).
“Also recorded” adds a separate entry of the source.

How the values were obtained:
[1] = tested on: C18:1 fatty acid elongation; settings: cited from earlier work
Arabidopsis thaliana = assay: Herbicide treatment of Arabidopsis thaliana with flufenacet: generation of the fiddlehead phenotype; format: in vivo, Arabidopsis thaliana (ecotype Columbia Col-0)
Method: Herbicide Treatment of Arabidopsis thaliana With Flufenacet: Generation of the Fiddlehead Phenotype Arabidopsis seeds (ecotype Columbia Col-0), which were stored at 4° C., were sown in soil and cultivated at 22° C.±2° C. under long-day conditions (16 h light/8h dark). Plants 2 weeks old were sprayed with 250 g/ha and 50 g/ha flufenacet and cultivated further at 22° C.±2° C. under long-day conditions (16 h light/8h dark). […] These fusions are very similar to those in the “fiddlehead” mutants.

SMILES | inhibition of C18:1 fatty acid elongation [1] | appearance of flowers after recovery (Arabidopsis thaliana; from day 18 after treatment with 250 g/ha and 50 g/ha) | fusion of the rosette leaves (Arabidopsis thaliana; in vivo) | fiddlehead phenotype (fusion of flower organs) (Arabidopsis thaliana; plants 2 weeks old sprayed with 250 g/ha and 50 g/ha, between day 7 and day 11 after treatment)
CN(C)c1cnn(-c2ccccc2)c(=O)c1Cl [BAS 13-338] | inhibit C18:1 fatty acid elongation |  |  | 
CC(C)N(C(=O)COc1nnc(C(F)(F)F)s1)c1ccc(F)cc1 [flufenacet] |  | all the flowers appear normal again | leads to fusion of the rosette leaves | fiddlehead phenotype can be induced; also recorded: the flower organs fuse with the uppermost cauline leaves
